Data taken from US5753615A, “Neuropeptides and their use as insecticides” (Queen Mary and Westfield College, priority 1993, dated 1998).
Non-standard residues stand in square brackets, D forms with d. No end group written: not given here. pGlu = O=C1CC[C@@H](C(=O)O)N1

Assays:
[1] = system: corpora allata of the cockroach Diploptera punctata; format: cell-based
Experimental: Thus, it causes maximum inhibition of JH at a concentration of 1 nM, with a 50% inhibition (ED50) being achieved at 0.1 nM.

[2] = system: corpora allata of the cockroach Diploptera punctata; details: given 'in comparison'; known allatostatins of the literature; test system not restated; cited from earlier work

Substance | 50% inhibition (ED50) of JH production [1] [nM] | ED50 (inhibition of JH production), comparison values [2] [nM]
GPPYDFGM-NH2 [Callatostatin 5, Gly-Pro-Pro-Tyr-Asp-Phe-Gly-Met-NH2] | 0.1 | 
[pGlu]VRFRQCYFNPISCF-OH (cysteine pairing not given here) [allatostatin of Manduca sexta] |  | 2
